Assay results as given in patent US8420606B2, “Method of utilizing physiological activity of rare saccharide and composition containing rare saccharide” (priority 2002, dated 2013).

Tested on: OVCAR3 (ovary cancer) cells
Test: cell cycle analysis by flow cytometer
Type: cell-based, human
Settings: D-allose 50 mM, cultured for 3 days; control 12.6%
Description: (2) Method: The cell cycle was analyzed by using a flow cytometer. Cells used here were OVCAR3 (ovary cancer) cells. 1) The cells were treated with trypsin to prepare a cell suspension liquid. 2) The cells were inaculated into a plastic tissue with a diameter of 100 mm and cultured for 24 hours (overnight) in a CO2 incubator. 3) Two groups of the cells, i.e., one with a rare saccharide (D-allose 50 mM) and the other with no rare saccharides (with D-glucose as a control), were cultured for 3 days. 4) The separated cells were washed twice with PBS(−). 5) After centrifugation, 3 mL of PBS(−) was added and stirred by pipetting. 6) 7 mL of 100% ethanol was added, followed by fixation at 4° C. for 2 hours. 7) The liquid was subjected to centrifugation at 1500 rpm for 5 minutes. 8) The separated cells were washed twice with cold PBS(−). 9) After centrifugation, 200 μg/mL of RNase was added, followed by incubation at 37° C. for 30 minutes. 10) 0.5 mL of PI (propidum iodide) was added, followed by incubation for 15 minutes. 11) The cell number was measured by using a flow cytometer.

With `O=C[C@H](O)[C@H](O)[C@H](O)[C@H](O)CO` [D-allose] the “proportion of the cells in G2-M stage of the cell cycle” value was 22.6%.
